The NIST ThermoML archive (doi:10.1016/j.fluid.2007.07.017)
Numbers after ± are expanded uncertainties.

Assay: xn = mol fraction of the nth substance listed
Settings: Liquid, Vibrating tube method

C=C [ethene] + CCCCO
mass density (283.65 K, x1 = 0.17): 781.4 ± 0.6 kg/m3 | mass density (283.65 K, x1 = 0.224): 767.7 ± 0.5 kg/m3 | mass density (283.65 K, x1 = 0.322): 743.7 ± 0.6 kg/m3 | mass density (283.65 K, x1 = 0.401): 718.9 ± 0.7 kg/m3 | mass density (283.65 K, x1 = 0.47): 695.8 ± 0.8 kg/m3 | mass density (283.65 K, x1 = 0.545): 660.9 ± 1 kg/m3 | mass density (283.65 K, x1 = 0.98): 323.2 ± 1.2 kg/m3 | mass density (283.65 K, x1 = 0.99): 296.6 ± 1.2 kg/m3 | mass density (283.65 K, x1 = 0.994): 287 ± 1.2 kg/m3 | mass density (290.8 K, x1 = 0.206): 768.3 ± 0.6 kg/m3 | mass density (290.8 K, x1 = 0.265): 752.1 ± 0.6 kg/m3 | mass density (290.8 K, x1 = 0.339): 732 ± 0.6 kg/m3 | mass density (290.8 K, x1 = 0.43): 707.5 ± 0.8 kg/m3 | mass density (290.8 K, x1 = 0.528): 664.6 ± 0.9 kg/m3 | mass density (290.8 K, x1 = 0.622): 624.4 ± 1 kg/m3 | mass density (290.8 K, x1 = 0.655): 601.6 ± 1.2 kg/m3 | mass density (290.8 K, x1 = 0.691): 585 ± 1.8 kg/m3 | mass density (290.8 K, x1 = 0.745): 527.5 ± 2.4 kg/m3
